# According to doi:10.1101/471615v1 (biorxiv, 2018):
# Target: T1, EphB6 (Homo sapiens, UniProt O15197)
# T1 sequence (O15197 1-1021): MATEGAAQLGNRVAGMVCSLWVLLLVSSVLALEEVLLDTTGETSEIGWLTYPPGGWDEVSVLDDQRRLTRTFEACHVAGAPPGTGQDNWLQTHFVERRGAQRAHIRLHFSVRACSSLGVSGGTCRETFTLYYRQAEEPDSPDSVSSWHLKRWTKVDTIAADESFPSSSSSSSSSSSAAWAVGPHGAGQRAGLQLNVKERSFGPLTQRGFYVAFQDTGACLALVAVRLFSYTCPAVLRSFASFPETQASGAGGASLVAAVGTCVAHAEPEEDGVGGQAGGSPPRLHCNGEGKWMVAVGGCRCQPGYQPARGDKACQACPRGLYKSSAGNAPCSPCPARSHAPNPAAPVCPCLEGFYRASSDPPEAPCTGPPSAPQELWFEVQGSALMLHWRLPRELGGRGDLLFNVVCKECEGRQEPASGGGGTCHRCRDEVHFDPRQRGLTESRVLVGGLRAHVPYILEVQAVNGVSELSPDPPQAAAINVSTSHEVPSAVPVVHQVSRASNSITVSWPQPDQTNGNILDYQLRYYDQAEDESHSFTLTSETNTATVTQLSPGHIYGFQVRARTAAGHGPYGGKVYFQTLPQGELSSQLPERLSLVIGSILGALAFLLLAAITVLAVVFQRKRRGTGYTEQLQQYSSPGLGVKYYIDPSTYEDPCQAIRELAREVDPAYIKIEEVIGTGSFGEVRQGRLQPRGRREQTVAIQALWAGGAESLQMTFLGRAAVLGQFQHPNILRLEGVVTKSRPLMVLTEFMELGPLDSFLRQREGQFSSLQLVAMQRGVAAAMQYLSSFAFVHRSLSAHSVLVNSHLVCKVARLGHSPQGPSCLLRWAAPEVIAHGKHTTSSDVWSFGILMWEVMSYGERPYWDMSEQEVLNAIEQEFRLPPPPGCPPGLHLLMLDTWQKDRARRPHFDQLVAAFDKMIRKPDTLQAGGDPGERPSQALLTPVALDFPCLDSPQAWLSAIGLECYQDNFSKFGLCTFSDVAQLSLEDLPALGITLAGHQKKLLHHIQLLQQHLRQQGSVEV
# Assay: biochemical
compound,measurement,value
"COc1cc(N(C)c2ccnc3ccc(C(F)(F)F)cc23)cc(OC)c1OC [compound 21, negative control (21)]",Kd,> 10 µM
